According to patent US20130261132A1, “CALCIUM-SENSING RECEPTOR-ACTIVE COMPOUNDS” (LEO PHARMA A/S, priority 2010, published 2013):

Test: Clearance in human liver microsomes
Format: in vitro ADME
Conditions: hepatic extraction ratio; test compound 0.5 μM, microsomes 0.5 mg/mL, NADPH 1 mM, 37° C.
Protocol: Test compound concentration is 0.5 μM, microsome concentration is 0.5 mg/mL and NADPH concentration is 1 mM in the incubation. The described method is performed by the liquid handling system Tecan RSP and is based on a 96-well format.
Control incubations with test compound without NADPH and test compound without microsomes are conducted to investigate non-CYP mediated metabolism and stability in phosphate buffer at 37° C., respectively.
The human liver microsomal suspension in phosphate buffer is mixed with NADPH. The mixture is pre-heated (7 min) to 37° C. Test compound is added, and the mixture is incubated for 30 minutes. Incubations are run in duplicate. Samples are withdrawn at predetermined stop times and mixed with methanol containing internal standard (IS) to terminate all enzyme activity and precipitate proteins. A control without NADPH (to detect problems such as nonspecific protein binding, heat instability or non-CYP mediated metabolism) and a control without microsomes (for assessing compound stability in the absence of any active enzymes) are tested.
The percentage of organic solvent in the incubations is less than 1%. Careful inspections of reagents are performed prior to the start of any experiment to ensure all reagents are in solution.
The 96-well plates are centrifuged. Test compound depletion, using a compound specific LC/MS/MS method, is determined.
The logarithm of the peak area ratios of test compound to internal standard (IS) versus incubation time is plotted in a graph.
The rate constant (k) (min^−1) of test compound depletion is calculated from the linear part of the curve and the half-time (t1/2) in minutes can be calculated from the rate constant (Eq. 2).
Intrinsic clearance (CIint) (mL/min/mg protein) is calculated from: […]
where c is the microsomal protein concentration in mg/mL.
Conversion to apparent clearance (CIapp) (mL/min/kg) is done by Eq. 4:
CIapp=CIint×a×b/d (Eq. 4)
where a, b and d are the scaling factors for normalizing CIint to human body weight.
a: 45 (microsomal protein/liver weight (mg/g))
b: 1500 (liver weight (g))
Hepatic clearance (CIh) (mL/min/kg) based on the well-stirred model is described as followed:
CIh=(CIapp·Q)/(CIapp+Q) (Eq. 5)
where Q is the liver blood flow in mL/min/kg (20 in humans).
Dividing hepatic clearance with liver blood flow, the hepatic extraction ratio (%) can be calculated:
Apparent clearance below approximately 10 mL/min/kg human body weight (corresponding to extraction ratio of approx. 33%) is considered as low clearance (high metabolic stability). Apparent intrinsic clearance above approximately 60 mL/min/kg human body weight (corresponding to extraction ratio of approx. 75%) is considered as high clearance (low metabolic stability).

Row | SMILES | Clearance (% Eh) in human liver microsomes
1 | COc1cc([C@@H](C)N[C@H]2CC[C@@H](c3ccc(OCC(=O)N4CCNCC4)cc3)C2)ccc1F [Compound 103, 2-[4-[(1R,3S)-3-[[(1R)-1-(4-Fluoro-3-methoxy-phenyl)ethyl]-amino]-cyclopentyl]phenoxy]-1-piperazin-1-yl-ethanone] | A (A: Eh < 33%)
2 | COc1cc([C@@H](C)N[C@H]2CC[C@@H](c3ccc(OCC(=O)NCCNS(C)(=O)=O)cc3)C2)ccc1F [Compound 108, 2-[4-[(1R,3S)-3-[[(1R)-1-(4-Fluoro-3-methoxy-phenyl)ethyl]-amino]-cyclopentyl]phenoxy]-N-[2-(methanesulfonamido)ethyl]acetamide] | A (A: Eh < 33%)
3 | COc1cc([C@@H](C)N[C@H]2CC[C@@H](c3ccc(OCC(=O)NCCS(N)(=O)=O)cc3)C2)ccc1F [Compound 104, 2-[4-[(1R,3S)-3-[[(1R)-1-(4-Fluoro-3-methoxy-phenyl)ethyl]-amino]-cyclopentyl]phenoxy]-N-(2-sulfamoylethyl)acetamide] | A (A: Eh < 33%)
4 | COc1cc([C@@H](C)N[C@H]2CC[C@@H](c3ccc(OCC(=O)NCCNCCO)cc3)C2)ccc1F [Compound 106, 2-[4-[(1R,3S)-3-[[(1R)-1-(4-Fluoro-3-methoxy-phenyl)ethyl]-amino]-cyclopentyl]phenoxy]-N-[2-(2-hydroxyethylamino)ethyl]acetamide] | A (A: Eh < 33%)
5 | C[C@@H](N[C@H]1CC[C@@H](c2ccc(OCC(=O)NC3CCNCC3)cc2)C1)c1cccc2ccccc12 [Compound 112, 2-[4-[(1R,3S)-3-[[(1R)-1-(1-Naphthyl)ethyl]amino]cyclopentyl]-phenoxy]-N-(4-piperidyl)acetamide] | A (A: Eh < 33%)
6 | COc1cc([C@@H](C)N[C@H]2CC[C@@H](c3ccc(OCC(=O)N4CCN(S(N)(=O)=O)CC4)cc3)C2)ccc1F [Compound 110, 4-[2-[4-[(1R,3S)-3-[[(1R)-1-(4-Fluoro-3-methoxy-phenyl)-ethyl]-amino]cyclopentyl]phenoxy]acetyl]piperazine-1-sulfonamide] | B (B: 33% ≦ Eh ≦ 75%)
7 | COc1cc([C@@H](C)N[C@H]2CC[C@@H](c3ccc(OCC(=O)N4CCN(C(C)=O)CC4)cc3)C2)ccc1F [Compound 109, 1-(4-Acetylpiperazin-1-yl)-2-[4-[(1R,3S)-3-[[(1R)-1-(4-fluoro-3-methoxy-phenyl)ethyl]amino]cyclopentyl]phenoxy]ethanone] | A (A: Eh < 33%)
